Data from patent US6344342B1, “Human G protein coupled lysophosphatidic acid receptor” (SmithKline Beecham Corporation, priority 1997, dated 2002).

System: HOFNH30
Assay: Ca2+-mobilization FLIPR assay in RBL-2H3 cells stably expressing HOFNH30
Assay type: cell-based, human
Details: several clones of RBL-2H3 cells stably expressing HOFNH30, Fluo 3AM-loaded cells
From the text: One preferred screening method involves co-transfecting HEK-293 cells with a mammalian expression plasmid encoding a G-protein coupled receptor (GPCR), such as HOFNH30, along with a mixture comprised of mammalian expression plasmids cDNAs encoding Gα15 (Wilkie T. M. et al Proc Natl Acad Sci USA 1991 88:10049-10053), Gα16 (Amatruda T. T. et al Proc Natl Acad Sci USA 1991 8:5587-5591, and three chimeric G-proteins refered to as Gqi5, Gqs5, and Gqo5 (Conklin B R et al Nature 1993 363:274-276, Conklin B. R. et al Mol Pharmacol 1996 50:885-890). Following a 24 h incubation the transfected HEK-293 cells are plated into poly-D-lysine coated 96 well black/clear plates (Becton Dickinson, Bedford, Mass.). The cells are assayed on FLIPR (Fluorescent Imaging Plate Reader, Molecular Devices, Sunnyvale, Calif.) for a calcium mobilization response following addition of test ligands. […]
A microtitre plate based Ca2^+-miobilization FLIPR assay (Fluorescent Imaging Plate Reader, Molecular Devices, Sunnyvale, Calif.) was used for the functional identification of the ligand activating RBL-2H3 cells stably expressing HOFNH30. […] After initiation of the assay, fluorescence was read every 1s for 1 min and then every 3 s for the following 1 min.

Q: For `CCCCCCCC/C=C\CCCCCCCC(=O)OC[C@@H](O)COP(=O)(O)O` [LPA, 1-Oleoyl-sn-glycero-3-phosphate], which calcium mobilization response is on record?
A: The calcium mobilization response was “dose dependent calcium mobilization response”.
